In PubChem BioAssay (NCI):
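Growth conditions: 96-well plates. Treatment: test compound, 48 hours, 5 concentrations. Analysis: linear interpolation between bracketing concentrations; unreached endpoints set to highest concentration. GI50 = concentration required for 50% inhibition of growth. TGI is the concentration that stops growth completely.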

Key:
Assay in all cases: NCI-60 cell line screen, 48 h
[1] = test system: LOX IMVI melanoma
[2] = test system: SR leukemia
[3] = test system: 786-0 renal
[4] = test system: UACC-257 melanoma
[5] = test system: NCI-H522 lung
[6] = test system: SF-295 CNS
[7] = test system: OVCAR-3 ovarian
[8] = test system: K-562 leukemia
[9] = test system: SK-OV-3 ovarian
[10] = test system: MDA-MB-435
[11] = test system: HS 578T breast
[12] = test system: HCT-15 colon
[13] = test system: NCI/ADR-RES ovarian
[14] = test system: CCRF-CEM leukemia
[15] = test system: IGROV1 ovarian
[16] = test system: KM12 colon
[17] = test system: MALME-3M melanoma
[18] = test system: EKVX NSCLC
[19] = test system: T-47D breast
[20] = test system: OVCAR-8 ovarian
[21] = test system: NCI-H226 lung
[22] = test system: RPMI-8226 leukemia
[23] = test system: MCF7 breast
[24] = test system: HL-60(TB) leukemia
[25] = test system: PC-3 prostate
[26] = test system: HT29 colon
[27] = test system: SNB-19 CNS
[28] = test system: COLO 205 colon
[29] = test system: ACHN renal
[30] = test system: CAKI-1 renal
[31] = test system: SK-MEL-5 melanoma
[32] = test system: OVCAR-4 ovarian
[33] = test system: U251 CNS
[34] = test system: HOP-62 NSCLC
[35] = test system: SK-MEL-28 melanoma
[36] = test system: HCC-2998 colon
[37] = test system: NCI-H23 lung
[38] = test system: SW-620 colon
[39] = test system: RXF 393 renal
[40] = test system: SK-MEL-2 melanoma
[41] = test system: SNB-75 CNS
[42] = test system: NCI-H460 lung
[43] = test system: MDA-MB-231 breast
[44] = test system: BT-549 breast
[45] = test system: SF-268 CNS
[46] = test system: TK-10 renal
[47] = test system: UACC-62 melanoma
[48] = test system: SF-539 CNS
[49] = test system: A549 NSCLC
[50] = test system: M14 melanoma
[51] = test system: A498 renal
[52] = test system: SN12C renal
[53] = test system: HCT-116 colon
[54] = test system: DU-145 prostate
[55] = test system: OVCAR-5 ovarian
[56] = test system: HOP-92 NSCLC
[57] = test system: MOLT-4 leukemia
[58] = test system: UO-31 renal
[59] = test system: MDA-N

## CCOC(=O)/C=C1/SC(N2CCCCC2)C(=O)N1CC (stereo not given)
[1]
  GI50: > 100 µM
  TGI: > 100 µM
[2]
  GI50: > 100 µM
  TGI: > 100 µM
[3]
  GI50: > 100 µM
  TGI: > 100 µM
[4]
  GI50: > 100 µM
  TGI: > 100 µM
[5]
  GI50: > 100 µM
  TGI: > 100 µM
[6]
  GI50: > 100 µM
  TGI: > 100 µM
[7]
  GI50: > 100 µM
  TGI: > 100 µM
[8]
  GI50: > 100 µM
  TGI: > 100 µM
[9]
  GI50: > 100 µM
  TGI: > 100 µM
[10]
  GI50: > 100 µM
  TGI: > 100 µM
[11]
  GI50: > 100 µM
  TGI: > 100 µM
[12]
  GI50: > 100 µM
  TGI: > 100 µM
[13]
  GI50: > 100 µM
  TGI: > 100 µM
[14]
  GI50: > 100 µM
  TGI: > 100 µM
[15]
  GI50: > 100 µM
  TGI: > 100 µM
[16]
  GI50: > 100 µM
  TGI: > 100 µM
[17]
  GI50: > 100 µM
  TGI: > 100 µM
[18]
  GI50: > 100 µM
  TGI: > 100 µM
[19]
  GI50: > 100 µM
  TGI: > 100 µM
[20]
  GI50: > 100 µM
  TGI: > 100 µM
[21]
  GI50: > 100 µM
  TGI: > 100 µM
[22]
  GI50: > 100 µM
  TGI: > 100 µM
[23]
  GI50: > 100 µM
  TGI: > 100 µM
[24]
  GI50: > 100 µM
  TGI: > 100 µM
[25]
  GI50: > 100 µM
  TGI: > 100 µM
[26]
  GI50: > 100 µM
  TGI: > 100000 nM
[27]
  GI50: > 100 µM
  TGI: > 100 µM
[28]
  GI50: > 100 µM
  TGI: > 100 µM
[29]
  GI50: > 100 µM
  TGI: > 100 µM
[30]
  GI50: > 100 µM
  TGI: > 100 µM
[31]
  GI50: > 100 µM
  TGI: > 100 µM
[32]
  GI50: > 100 µM
  TGI: > 100 µM
[33]
  GI50: > 100 µM
  TGI: > 100 µM
[34]
  GI50: > 100 µM
  TGI: > 100000 nM
[35]
  GI50: > 100 µM
  TGI: > 100 µM
[36]
  GI50: > 100 µM
  TGI: > 100 µM
[37]
  GI50: > 100 µM
  TGI: > 100 µM
[38]
  GI50: > 100 µM
  TGI: > 100 µM
[39]
  GI50: > 100 µM
  TGI: > 100 µM
[40]
  GI50: > 100 µM
  TGI: > 100 µM
[41]
  GI50: > 100 µM
  TGI: > 100 µM
[42]
  GI50: > 100 µM
  TGI: > 100 µM
[43]
  GI50: > 100 µM
  TGI: > 100 µM
[44]
  GI50: > 100 µM
  TGI: > 100 µM
[45]
  GI50: > 100 µM
  TGI: > 100 µM
[46]
  GI50: > 100 µM
  TGI: > 100 µM
[47]
  GI50: > 100 µM
  TGI: > 100 µM
[48]
  GI50: > 100 µM
  TGI: > 100 µM
[49]
  GI50: > 100 µM
  TGI: > 100 µM
[50]
  GI50: > 100 µM
  TGI: > 100 µM
[51]
  GI50: > 100 µM
  TGI: > 100 µM
[52]
  GI50: > 100 µM
  TGI: > 100 µM
[53]
  GI50: > 100 µM
  TGI: > 100 µM
[54]
  GI50: > 100 µM
  TGI: > 100 µM
[55]
  GI50: > 100 µM
  TGI: > 100 µM
[56]
  GI50: > 100 µM
  TGI: > 100 µM
[57]
  GI50: > 100 µM
  TGI: > 100 µM
[58]
  GI50: > 100 µM
  TGI: > 100 µM

## O=CC1=C(C(=O)OC(c2ccccc2)c2ccccc2)N2C(=O)[C@@H](NC(=O)Cc3cccs3)[C@H]2SC1
[1]
  TGI: > 100 µM
[2]
  TGI: > 100 µM
[3]
  TGI: > 100 µM
[4]
  TGI: > 100 µM
[5]
  TGI: > 100 µM
[6]
  TGI: > 100 µM
[7]
  TGI: > 100 µM
[8]
  TGI: > 100 µM
[9]
  TGI: > 100 µM
[10]
  TGI: > 100 µM
[12]
  TGI: > 100 µM
[13]
  TGI: > 100 µM
[14]
  TGI: > 100 µM
[15]
  TGI: > 100 µM
[16]
  TGI: > 100 µM
[17]
  TGI: > 100 µM
[18]
  TGI: > 100 µM
[20]
  TGI: > 100 µM
[21]
  TGI: > 100 µM
[22]
  TGI: > 100 µM
[23]
  TGI: > 100 µM
[24]
  TGI: > 100 µM
[25]
  TGI: > 100 µM
[28]
  TGI: > 100 µM
[29]
  TGI: > 100 µM
[30]
  TGI: > 100 µM
[31]
  TGI: > 100 µM
[32]
  TGI: > 100 µM
[33]
  TGI: > 100 µM
[36]
  TGI: > 100 µM
[37]
  TGI: > 100 µM
[38]
  TGI: > 100 µM
[39]
  TGI: > 100 µM
[40]
  TGI: > 100 µM
[41]
  TGI: > 100 µM
[42]
  TGI: > 100 µM
[59]
  TGI: > 100000 nM
[43]
  TGI: > 100 µM
[46]
  TGI: > 100 µM
[47]
  TGI: > 100 µM
[48]
  TGI: > 100 µM
[49]
  TGI: > 100 µM
[50]
  TGI: > 100 µM
[51]
  TGI: > 100 µM
[52]
  TGI: > 100 µM
[53]
  TGI: > 100 µM
[54]
  TGI: > 100 µM
[55]
  TGI: > 100 µM
[56]
  TGI: > 100 µM
[57]
  TGI: > 100 µM
[58]
  TGI: > 100 µM

## COc1ccc2c(ccc3c(C(=O)NCCN(C)CCNC(=O)c4cn(C)c5c4ccc4cc(OC)ccc45)cn(C)c32)c1
[7]
  TGI: 2.83 µM
[12]
  TGI: 2.52 µM
[16]
  TGI: 3.02 µM
[25]
  TGI: 2.84 µM
[26]
  TGI: 2700 nM
[33]
  TGI: > 100 µM
[34]
  TGI: 2750 nM
[36]
  TGI: 2.79 µM
[59]
  TGI: 2910 nM
[50]
  TGI: 3 µM
[51]
  TGI: > 100 µM
[52]
  TGI: 2.82 µM
[54]
  TGI: 3.32 µM
